Assay results reported in patent US20080009418A1, “Selective Inhibitors” (Alchemia LTD., priority 2004, published 2008).

Tests used:
Conditions in all cases: compound at 10 μM
Human Melanocortin (MC3) = target: T1, Human Melanocortin (MC3) (Homo sapiens, UniProt P41968); experiment: Radioligand binding, human melanocortin MC3 membranes, FlashPlate, [125I]-NDP-αMSH
T1 construct: purchased Perkin Elmer Biosignal
Outline: (§1)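 Cloned human receptor membranes were coated onto FlashPlate wells and incubated with radioligand and compound (added from a 0.5 mM DMSO daughter plate) for 1 hour at room temperature in the dark. Scintillation counting gave percent inhibition, with DMSO defining total and reference ligand defining non-specific binding.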

Human κ-Opioid (KOP) = target: T2, Human κ-Opioid (KOP) (Homo sapiens, UniProt P41145); experiment: Radioligand binding, human κ-opioid (KOP) membranes, filtration, [3H]-Diprenorphine
T2 construct: purchased Perkin Elmer Biosignal
T2 sequence (P41145 whole entry): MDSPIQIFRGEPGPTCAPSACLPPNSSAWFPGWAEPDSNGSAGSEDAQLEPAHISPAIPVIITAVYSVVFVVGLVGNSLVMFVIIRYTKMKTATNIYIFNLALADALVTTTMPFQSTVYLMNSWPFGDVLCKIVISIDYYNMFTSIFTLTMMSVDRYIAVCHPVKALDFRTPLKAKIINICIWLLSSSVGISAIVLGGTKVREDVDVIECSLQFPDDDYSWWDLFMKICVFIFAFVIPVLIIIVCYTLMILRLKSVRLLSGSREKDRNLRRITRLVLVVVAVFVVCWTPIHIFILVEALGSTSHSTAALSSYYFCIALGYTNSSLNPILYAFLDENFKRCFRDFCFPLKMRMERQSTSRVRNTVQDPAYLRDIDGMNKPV
Outline: (§2)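 Filtration binding on cloned human receptor membranes (1 Unit/well), [125I]-Substance P for NK1 and [3H]-Diprenorphine for KOP, 1 h at room temperature. Filters PEI-presoaked, washed with cold 50 mM Tris-HCl pH 7.4, counted by scintillation; percent inhibition calculated, reference ligand defining non-specific binding.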

Human melanocortin (MC5) = target: T3, Human melanocortin (MC5) (Homo sapiens, UniProt P33032); experiment: Radioligand binding, human melanocortin MC5 membranes, FlashPlate, [125I]-NDP-αMSH
T3 construct: purchased Perkin Elmer Biosignal
T3 sequence (P33032 whole entry): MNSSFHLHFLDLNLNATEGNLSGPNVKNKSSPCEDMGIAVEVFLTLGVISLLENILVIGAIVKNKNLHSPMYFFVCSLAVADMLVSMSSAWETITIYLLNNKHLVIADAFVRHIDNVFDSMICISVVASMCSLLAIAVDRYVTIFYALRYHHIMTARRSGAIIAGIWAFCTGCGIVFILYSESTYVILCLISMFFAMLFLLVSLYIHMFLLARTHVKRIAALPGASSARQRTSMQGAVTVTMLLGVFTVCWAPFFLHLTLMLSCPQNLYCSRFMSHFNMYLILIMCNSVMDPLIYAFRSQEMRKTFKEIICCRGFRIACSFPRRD
Outline: as §1

Human opioid (ORL1) = target: T4, Human opioid (ORL1) (Homo sapiens, UniProt P41146); experiment: Radioligand binding, human opioid ORL1 membranes, FlashPlate, [125I]-Nociceptin
T4 construct: purchased Perkin Elmer Biosignal
T4 sequence (P41146 whole entry): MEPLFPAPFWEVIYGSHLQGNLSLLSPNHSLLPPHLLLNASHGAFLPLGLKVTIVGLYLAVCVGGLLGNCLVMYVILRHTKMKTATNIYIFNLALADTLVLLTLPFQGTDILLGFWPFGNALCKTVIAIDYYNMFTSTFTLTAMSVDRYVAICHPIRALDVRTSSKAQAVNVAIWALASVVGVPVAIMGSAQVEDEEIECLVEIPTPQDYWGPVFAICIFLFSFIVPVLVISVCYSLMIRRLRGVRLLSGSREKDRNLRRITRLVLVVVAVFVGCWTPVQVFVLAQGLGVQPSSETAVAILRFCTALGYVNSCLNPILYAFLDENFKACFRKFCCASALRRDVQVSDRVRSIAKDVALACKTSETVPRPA
Outline: as §1

Human μ-opioid (MOP) = target: T5, Human μ-opioid (MOP) (Homo sapiens, UniProt P35372); experiment: Radioligand binding, human μ-opioid (MOP) membranes, FlashPlate, [3H]-Naloxone
T5 construct: purchased Perkin Elmer Biosignal
T5 sequence (P35372 whole entry): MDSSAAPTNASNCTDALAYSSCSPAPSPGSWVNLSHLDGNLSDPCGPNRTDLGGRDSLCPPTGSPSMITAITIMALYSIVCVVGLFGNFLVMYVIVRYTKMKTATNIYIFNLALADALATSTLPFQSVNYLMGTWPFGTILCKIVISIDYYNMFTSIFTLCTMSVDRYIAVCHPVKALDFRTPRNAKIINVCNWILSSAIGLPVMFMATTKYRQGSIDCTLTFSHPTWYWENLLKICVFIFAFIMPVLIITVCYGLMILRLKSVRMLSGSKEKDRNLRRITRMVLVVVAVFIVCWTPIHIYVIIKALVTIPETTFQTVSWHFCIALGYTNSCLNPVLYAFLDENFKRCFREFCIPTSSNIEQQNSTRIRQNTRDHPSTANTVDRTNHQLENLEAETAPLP
Outline: as §1

Human δ-opioid (DOP) = target: T6, Human δ-opioid (DOP) (Homo sapiens, UniProt P41143); experiment: Radioligand binding, human δ-opioid (DOP) membranes, FlashPlate, [3H]-Bremazocine
T6 construct: purchased Perkin Elmer Biosignal
T6 sequence (P41143 whole entry): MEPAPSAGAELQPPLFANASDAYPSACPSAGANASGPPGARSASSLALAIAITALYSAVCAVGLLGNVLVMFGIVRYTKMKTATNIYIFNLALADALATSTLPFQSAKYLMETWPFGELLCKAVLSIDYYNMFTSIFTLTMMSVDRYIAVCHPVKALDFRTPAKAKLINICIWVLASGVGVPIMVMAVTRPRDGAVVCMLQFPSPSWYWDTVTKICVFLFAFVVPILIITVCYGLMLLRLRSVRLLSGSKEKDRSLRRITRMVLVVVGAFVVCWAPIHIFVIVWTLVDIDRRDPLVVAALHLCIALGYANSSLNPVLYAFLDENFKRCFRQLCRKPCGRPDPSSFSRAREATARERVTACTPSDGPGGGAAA
Outline: as §1

Human neurokinin (NK1) = target: T7, Human neurokinin (NK1) (Homo sapiens, UniProt P25103); experiment: Radioligand binding, human neurokinin NK1 membranes, filtration, [125I]-Substance P
T7 construct: purchased Perkin Elmer Biosignal
T7 sequence (P25103 whole entry): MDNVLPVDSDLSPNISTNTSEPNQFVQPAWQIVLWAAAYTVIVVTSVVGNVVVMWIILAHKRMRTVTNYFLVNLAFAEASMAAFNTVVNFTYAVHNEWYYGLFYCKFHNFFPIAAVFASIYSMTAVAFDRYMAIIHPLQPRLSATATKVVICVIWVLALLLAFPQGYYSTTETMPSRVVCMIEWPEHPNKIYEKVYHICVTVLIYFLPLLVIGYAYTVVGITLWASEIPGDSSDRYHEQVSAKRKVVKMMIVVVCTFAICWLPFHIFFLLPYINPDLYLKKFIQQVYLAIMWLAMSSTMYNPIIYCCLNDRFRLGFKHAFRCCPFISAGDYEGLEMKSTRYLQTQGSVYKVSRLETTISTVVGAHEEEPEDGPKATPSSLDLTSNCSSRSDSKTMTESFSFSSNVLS
Outline: as §2

Mouse urotensin (mUR2) = target: T8, Mouse urotensin (mUR2) (Mus musculus, UniProt Q8VIH9); experiment: Radioligand binding, mouse urotensin mUR2 membranes, FlashPlate, [125I]-Urotensin II
T8 construct: purchased Perkin Elmer Biosignal
T8 sequence (Q8VIH9 1-385): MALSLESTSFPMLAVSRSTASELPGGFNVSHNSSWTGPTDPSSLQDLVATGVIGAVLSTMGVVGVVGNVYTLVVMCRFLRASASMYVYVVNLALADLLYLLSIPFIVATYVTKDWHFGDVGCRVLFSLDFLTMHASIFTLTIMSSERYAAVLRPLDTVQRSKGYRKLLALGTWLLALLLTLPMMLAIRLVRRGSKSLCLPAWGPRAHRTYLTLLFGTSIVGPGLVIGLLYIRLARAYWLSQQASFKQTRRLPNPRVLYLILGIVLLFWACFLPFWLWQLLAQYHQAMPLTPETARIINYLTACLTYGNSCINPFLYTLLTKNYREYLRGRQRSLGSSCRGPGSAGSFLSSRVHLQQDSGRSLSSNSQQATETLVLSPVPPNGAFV
Outline: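 Cloned mouse urotensin (mUR2) receptor membranes from Perkin Elmer Biosignal were immobilized in FlashPlate microplates using a proprietary coating. Each well got 19.5 μl buffer, then 0.5 μl of DMSO, reference ligand, or compound. Adding 5 μl of [125I]-Urotensin II, diluted to 5× final concentration in binding buffer, started binding. Plates were sealed with TopSeal-A and incubated 1 hour at room temperature in the dark. Wells were counted for 30 seconds each on a TopCount after a 60-second delay, and percentage inhibition was calculated.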

Human Melanocortin (MC4) = target: T9, Human Melanocortin (MC4) (Homo sapiens, UniProt P32245); experiment: Radioligand binding, human melanocortin MC4 membranes, FlashPlate, [125I]-NDP-αMSH
T9 construct: purchased Perkin Elmer Biosignal
T9 sequence (P32245 whole entry): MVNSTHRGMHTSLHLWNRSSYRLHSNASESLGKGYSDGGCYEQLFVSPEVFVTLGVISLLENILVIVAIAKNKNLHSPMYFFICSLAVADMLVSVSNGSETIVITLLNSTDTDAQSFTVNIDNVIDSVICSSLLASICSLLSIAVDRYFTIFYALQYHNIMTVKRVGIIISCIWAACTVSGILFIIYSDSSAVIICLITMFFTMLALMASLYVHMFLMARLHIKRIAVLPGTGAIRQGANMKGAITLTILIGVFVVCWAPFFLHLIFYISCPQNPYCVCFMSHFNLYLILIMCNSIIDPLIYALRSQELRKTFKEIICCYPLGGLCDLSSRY
Outline: as §1

[1] = target: T10, Human melanin-concentrating hormone (MCH1) (Homo sapiens, UniProt Q99705); experiment: Radioligand binding, human melanin-concentrating hormone MCH1 membranes, FlashPlate, [125I]-S36057
T10 construct: purchased Perkin Elmer Biosignal
T10 sequence (Q99705 whole entry): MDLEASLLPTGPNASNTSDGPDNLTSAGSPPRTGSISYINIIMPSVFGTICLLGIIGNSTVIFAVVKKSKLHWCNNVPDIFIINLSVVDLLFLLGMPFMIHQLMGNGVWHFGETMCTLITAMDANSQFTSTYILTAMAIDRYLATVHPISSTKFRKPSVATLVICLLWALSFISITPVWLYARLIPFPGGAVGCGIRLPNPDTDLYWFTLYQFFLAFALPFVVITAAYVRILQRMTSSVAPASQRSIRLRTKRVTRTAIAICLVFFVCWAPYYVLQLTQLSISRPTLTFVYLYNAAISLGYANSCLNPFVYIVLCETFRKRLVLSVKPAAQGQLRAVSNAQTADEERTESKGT
Outline: as §1

[2] = target: T11, Human neuropeptide Y (NPY-Y1) (Homo sapiens, UniProt P25929); experiment: Radioligand binding, human neuropeptide Y NPY-Y1 membranes, FlashPlate, [125I]-PYY
T11 construct: purchased Perkin Elmer Biosignal
T11 sequence (P25929 1-384): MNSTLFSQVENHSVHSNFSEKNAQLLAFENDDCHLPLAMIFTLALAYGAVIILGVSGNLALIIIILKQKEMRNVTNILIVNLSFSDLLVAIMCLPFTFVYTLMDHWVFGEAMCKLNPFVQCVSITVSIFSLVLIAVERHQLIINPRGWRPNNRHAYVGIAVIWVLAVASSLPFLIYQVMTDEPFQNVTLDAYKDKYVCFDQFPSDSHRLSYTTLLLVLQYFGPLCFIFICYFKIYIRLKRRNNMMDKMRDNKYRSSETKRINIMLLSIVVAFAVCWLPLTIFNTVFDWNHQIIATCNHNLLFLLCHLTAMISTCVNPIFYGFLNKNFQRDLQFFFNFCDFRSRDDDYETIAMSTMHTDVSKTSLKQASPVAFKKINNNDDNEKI
Outline: as §1

T1 sequence (P41968 whole entry): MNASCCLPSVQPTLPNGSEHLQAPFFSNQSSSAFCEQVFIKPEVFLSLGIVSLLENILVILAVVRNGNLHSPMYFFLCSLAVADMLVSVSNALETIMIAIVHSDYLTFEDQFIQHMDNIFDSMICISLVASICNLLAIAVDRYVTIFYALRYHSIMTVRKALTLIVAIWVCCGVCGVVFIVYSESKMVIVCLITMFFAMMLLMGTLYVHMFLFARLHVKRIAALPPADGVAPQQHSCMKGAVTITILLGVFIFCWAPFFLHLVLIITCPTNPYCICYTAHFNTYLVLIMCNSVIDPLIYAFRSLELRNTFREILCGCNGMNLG

Question: With `CO[C@H]1[C@H](O)[C@@H](COCc2ccc(-c3ccccc3)cc2)OC(OCc2ccc3ccccc3c2)[C@@H]1NC(=O)CCCNC(=N)N` (stereo partly drawn) [compound 69] as the molecule, how does the “A3 radioligand binding inhibition” value (Human Melanocortin (MC3); human melanocortin MC3 membranes) read?
Answer: + (“+” indicates greater than 50% inhibition at 10 μM)

Question: And the “A2 radioligand binding inhibition” value (Human κ-Opioid (KOP); human κ-opioid (KOP) membranes)?
Answer: − (“−” indicates less than 50% inhibition at 10 μM)

Question: And the “A5 radioligand binding inhibition” value (Human melanocortin (MC5); human melanocortin MC5 membranes)?
Answer: + (“+” indicates greater than 50% inhibition at 10 μM)

Question: And the “A10 radioligand binding inhibition” value (Human opioid (ORL1); human ORL1 membranes)?
Answer: + (“+” indicates greater than 50% inhibition at 10 μM)

Question: And the “A7 radioligand binding inhibition” value (Human μ-opioid (MOP); human μ-opioid (MOP) membranes)?
Answer: + (“+” indicates greater than 50% inhibition at 10 μM)

Question: And the “A1 radioligand binding inhibition” value (Human δ-opioid (DOP); human δ-opioid (DOP) membranes)?
Answer: − (“−” indicates less than 50% inhibition at 10 μM)

Question: What about the “A8 radioligand binding inhibition” value (Human neurokinin (NK1); human neurokinin NK1 membranes) of the same molecule?
Answer: + (“+” indicates greater than 50% inhibition at 10 μM)

Question: And the “A11 radioligand binding inhibition” value (Mouse urotensin (mUR2); mouse urotensin mUR2 membranes)?
Answer: − (“−” indicates less than 50% inhibition at 10 μM)

Question: And the “A4 radioligand binding inhibition” value (Human Melanocortin (MC4); human melanocortin MC4 membranes)?
Answer: + (“+” indicates greater than 50% inhibition at 10 μM)

Question: And the “A6 radioligand binding inhibition” value ([1]; human MCH1 membranes)?
Answer: + (“+” indicates greater than 50% inhibition at 10 μM)

Question: What about the “A9 radioligand binding inhibition” value ([2]; human NPY-Y1 membranes) of the same molecule?
Answer: − (“−” indicates less than 50% inhibition at 10 μM)

Question: For `COCC1OC(OCCc2ccccc2)C(NC(=O)CCN)C(OCc2ccc(Cl)cc2)C1O` (stereo not drawn) [compound 221], which “A3: inhibition of radioligand binding” value (Human Melanocortin (MC3); [125I]-NDP-αMSH, FlashPlate) is on record?
Answer: − (“−” indicates less than 50% inhibition at 10 μM)

Question: And the “A2: inhibition of radioligand binding” value (Human κ-Opioid (KOP); [3H]-Diprenorphine, filtration)?
Answer: − (“−” indicates less than 50% inhibition at 10 μM)

Question: What about the “A5: inhibition of radioligand binding” value (Human melanocortin (MC5); [125I]-NDP-αMSH, FlashPlate) of the same molecule?
Answer: + (“+” indicates greater than 50% inhibition at 10 μM)

Question: What about the “A10: inhibition of radioligand binding” value (Human opioid (ORL1); [125I]-Nociceptin, FlashPlate) of the same molecule?
Answer: − (“−” indicates less than 50% inhibition at 10 μM)

Question: And the “A7: inhibition of radioligand binding” value (Human μ-opioid (MOP); [3H]-Naloxone, FlashPlate)?
Answer: − (“−” indicates less than 50% inhibition at 10 μM)

Question: And the “A1: inhibition of radioligand binding” value (Human δ-opioid (DOP); [3H]-Bremazocine, FlashPlate)?
Answer: − (“−” indicates less than 50% inhibition at 10 μM)

Question: And the “A8: inhibition of radioligand binding” value (Human neurokinin (NK1); [125I]-Substance P, filtration)?
Answer: + (“+” indicates greater than 50% inhibition at 10 μM)

Question: And the “A11: inhibition of radioligand binding” value (Mouse urotensin (mUR2); [125I]-Urotensin II, FlashPlate)?
Answer: − (“−” indicates less than 50% inhibition at 10 μM)

Question: And the “A4: inhibition of radioligand binding” value (Human Melanocortin (MC4); [125I]-NDP-αMSH, FlashPlate)?
Answer: − (“−” indicates less than 50% inhibition at 10 μM)

Question: And the “A6: inhibition of radioligand binding” value ([1]; [125I]-S36057, FlashPlate)?
Answer: − (“−” indicates less than 50% inhibition at 10 μM)

Question: What about the “A9: inhibition of radioligand binding” value ([2]; [125I]-PYY, FlashPlate) of the same molecule?
Answer: − (“−” indicates less than 50% inhibition at 10 μM)

Question: For `CSC1OC(COCc2cccc(N)c2)C(O)C(OCc2ccc(Cl)cc2)C1NC(=O)C=Cc1ccccc1` (stereo not drawn) [compound 329], which “A3: inhibition of radioligand binding, human melanocortin (MC3)” value (Human Melanocortin (MC3); [125I]-NDP-αMSH) is on record?
Answer: − (“−” indicates less than 50% inhibition at 10 μM)

Question: What about the “A2: inhibition of radioligand binding, human κ-opioid (KOP)” value (Human κ-Opioid (KOP); [3H]-Diprenorphine) of the same molecule?
Answer: − (“−” indicates less than 50% inhibition at 10 μM)

Question: What about the “A5: inhibition of radioligand binding, human melanocortin (MC5)” value (Human melanocortin (MC5); [125I]-NDP-αMSH) of the same molecule?
Answer: − (“−” indicates less than 50% inhibition at 10 μM)

Question: And the “A10: inhibition of radioligand binding, human opioid (ORL1)” value (Human opioid (ORL1); [125I]-Nociceptin)?
Answer: − (“−” indicates less than 50% inhibition at 10 μM)

Question: What about the “A7: inhibition of radioligand binding, human μ-opioid (MOP)” value (Human μ-opioid (MOP); [3H]-Naloxone) of the same molecule?
Answer: − (“−” indicates less than 50% inhibition at 10 μM)

Question: What about the “A1: inhibition of radioligand binding, human δ-opioid (DOP)” value (Human δ-opioid (DOP); [3H]-Bremazocine) of the same molecule?
Answer: − (“−” indicates less than 50% inhibition at 10 μM)

Question: And the “A8: inhibition of radioligand binding, human neurokinin (NK1)” value (Human neurokinin (NK1); [125I]-Substance P)?
Answer: + (“+” indicates greater than 50% inhibition at 10 μM)

Question: And the “A11: inhibition of radioligand binding, mouse urotensin (mUR2)” value (Mouse urotensin (mUR2); [125I]-Urotensin II)?
Answer: − (“−” indicates less than 50% inhibition at 10 μM)

Question: What about the “A4: inhibition of radioligand binding, human melanocortin (MC4)” value (Human Melanocortin (MC4); [125I]-NDP-αMSH) of the same molecule?
Answer: − (“−” indicates less than 50% inhibition at 10 μM)

Question: And the “A6: inhibition of radioligand binding, human melanin-concentrating hormone (MCH1)” value ([1]; [125I]-S36057)?
Answer: − (“−” indicates less than 50% inhibition at 10 μM)

Question: And the “A9: inhibition of radioligand binding, human neuropeptide Y (NPY-Y1)” value ([2]; [125I]-PYY)?
Answer: − (“−” indicates less than 50% inhibition at 10 μM)
